Experimental data from patent US10688092B2, “Compositions and methods of using nintedanib for improving glaucoma surgery success” (Cloudbreak Therapeutics, LLC, priority 2016, dated 2020).

Assays:
[1] = tested on: patients with medically uncontrolled open-angle glaucoma scheduled for a primary trabeculectomy; assay: Clinical study of topical nintedanib 0.2% as adjunct therapy to trabeculectomy; format: in vivo, human
Excerpt: Topical nintedanib 0.2% as adjunct therapy to increase success of trabeculectomy in a clinical study. A randomized, double-masked, placebo-controlled, 12-month experimental trial to test the effects of topical nintedanib 0.2% on the success rate of trabeculectomy. The study design would be as described by Vandewalle et. al. (Vandewalle et. al. Br J Ophthalmol. 2014, January; 98(1):73-8).
Patients with medically uncontrolled open-angle glaucoma scheduled for a primary trabeculectomy would be enrolled and randomized to receive one drop TID of either nintedanib or placebo solutions. The treatment would start immediately after surgery and would last for a month. Approximately 150 patients would be enrolled in the study.
Surgeries would be performed under general or retrobulbar anaesthesia by experienced surgeons using a modified Moorfields technique. IOP would be measured by Goldmann applanation tonometry. Two measurements would be taken by masked observers and averaged to determine the mean IOP if two values were within 2 mm Hg. A third measurement would be taken if the difference between the first two determinations is >2 mm Hg.
Patients would be examined on day 1; at weeks 1, 2, and 4; and at months 3, 6, and 12 after trabeculectomy. […] The number of postoperative IOP-lowering medications, intra- and postoperative complications, and surgical interventions would also be recorded. […]

[2] = tested on: rabbit model of glaucoma filtration surgery; assay: Rabbit glaucoma filtration surgery model; format: in vivo, New Zealand White rabbits
Excerpt: The rabbit glaucoma surgery model is used to illustrate use of the presently disclosed methods for improving the success of glaucoma filtration surgery. Specifically, an established rabbit model of glaucoma filtration surgery would be used to study the effects of nintedanib 0.2% solution on the wound-healing events after surgery. The surgical procedure is as described in Wong et al. (Wong et al. Invest Ophthalmol Vis Sci. 2003; 44(3):1097-1103). Briefly, a partial thickness 8-0 silk corneal traction suture is placed superiorly, and the eye pulled down. A fornix based conjunctival flap is raised, after which a blunt dissection of the subconjunctival space is performed of approximately 5 mm along the limbus and 8 mm posteriorly. A microvitreoretinal (MVR) blade is used to make a partial-thickness scleral incision 3 to 4 mm behind the limbus, and a scleral tunnel to the corneal stroma is fashioned. A 22-gauge, 25-mm intravenous cannula (Venflon 2; Beckton Dickinson, Oxford, UK) is passed through a scleral tunnel anteriorly until the cannula needle is visible in the clear cornea. Entry into the anterior chamber is made with a cannular needle, which is then withdrawn as the cannula is advanced to the mid-pupillary area. The cannula is trimmed and beveled at its scleral end so that it protrudes 1 mm from the insertion point, and a 10-0 nylon suture is placed to fix the tube to the scleral surface. The conjunctival incision is closed with two interrupted sutures and a central, mattress-type 10-0 nylon suture attached to a needle (B/V 100-4; Ethicon) to give a water-tight closure. One drop each of guttae chloramphenicol and Betnesol-N(Glaxo Wellcome, Uxbridge, UK) ointment is instilled at the end of surgery.
Twenty female New Zealand White rabbits (2-2.4 kg, 12-14 weeks old; Charles River) would be acclimatized for 5 days before the experiments start. Glaucoma surgery would be performed on the left eye as described. After surgery, the rabbits would be arranged into two groups and one group would be treated with vehicle and another with nintedanib 0.2% solution. Treatments would begin immediately after surgery and the treatment would be TID for 2 weeks. The survival of the bleb formed by the surgery and the intraocular pressure (IOP) would be followed for 28 days. Histological analysis of the scar tissue would be performed at the end of the study.

COC(=O)c1ccc2c(c1)NC(=O)/C2=C(\Nc1ccc(N(C)C(=O)CN2CCN(C)CC2)cc1)c1ccccc1 [nintedanib, Methyl (3Z)-3-{[(4-{methyl[(4-methylpiperazin-1-yl)acetyl]amino}phenyl)amino] (phenyl)methylidene}-2-oxo-2,3-dihydro-1H-indole-6-carboxylate]
IOP compared to baseline ([1]; 12-month visit, one drop TID for a month after surgery): effectively reduced
absolute success rate of glaucoma surgery (FIG. 4) ([1]; vs the placebo group, differences statistically significant at time points after 6 months): higher
bleb survival at end of study ([2]; day 28, no bleb would survive in the vehicle group): most of the bleb would survive
histological analysis of scar tissue at the surgical site ([2]; end of study, compared with vehicle group): less scar tissue
Surgery success outcome ([2]; nintedanib 0.2% solution TID for 2 weeks after surgery, compared with vehicle group): significantly prolonged
bleb survival (survival curve of the bleb after surgery, FIG. 2) ([2]; nintedanib 0.2% solution TID for 2 weeks, followed for 28 days, compared with vehicle group): substantially prolonged
IOP during the follow up period after the surgery (FIG. 3) ([2]; nintedanib 0.2% solution TID for 2 weeks, followed for 28 days, IOP increased gradually in vehicle group): below 20 mm
